According to patent US8039454B2, “Macrolide compounds with antibiotic and antineoplastic properties” (Weihe Pharmaceuticals Co. Ltd., priority 2006, dated 2011):
≈ marks a conversion by molar mass, not a printed value.

Key:
Assay in all cases: MIC by standard dilution method in Tryptic Soy Broth
Assay type in all cases: cell-based
[1] = system: Enterococcus faecalis; details: 35° C., 24 h incubation
Protocol: (§1) To determine minimum inhibitory concentration (MIC) of the WBI-3001, the standard dilution method was used. The tests were conducted at 35° C. and the MICs were determined after 24 h incubation.

[2] = system: Escherichia coli; details: 35° C., 24 h incubation
Protocol: as §1

[3] = system: Pseudomonas aeruginosa; details: 35° C., 24 h incubation
Protocol: as §1

[4] = system: S. aureus MSRA (clinical isolates of methicillin-resistant strain); details: Staphylococcus aureus, 24 h
Protocol: as §1

[5] = system: Staphylococcus epidermidis; details: 35° C., 24 h incubation
Protocol: as §1

[6] = system: Streptococcus pyogenes; details: 35° C., 24 h incubation
Protocol: as §1

`CC[C@H]1OC(=O)[C@H](C)[C@@H](O[C@H]2C[C@@](C)(OC)[C@@H](O)[C@H](C)O2)[C@H](C)[C@@H](O[C@@H]2O[C@H](C)C[C@H](N(C)C)[C@H]2O)[C@](C)(O)C[C@@H](C)C(=O)[C@H](C)[C@@H](O)[C@]1(C)O` [Erythromycin] gave an MIC [1] greater than 32 µg/mL, an MIC [2] of 1 µg/mL (≈ 1.36 µM) and an MIC [3] greater than 32 µg/mL. The MIC [4] was greater than 32 µg/mL, the MIC [5] was 0.25 µg/mL (≈ 0.341 µM) and the MIC [6] was 0.03 µg/mL (≈ 0.0409 µM).
